Test results from patent US10681909B2, “Herbicidal triazoles” (FMC Corporation, priority 2014, dated 2020).

Key:
[1] = system: field violet; test: Test D postemergence; assay type: in vivo, Viola arvensis; details: scale 0 to 100
From the text: (§1) Seeds of plant species selected from bluegrass (annual bluegrass, Poa annua), blackgrass (Alopecurus myosuroides), canarygrass (Phalaris minor), chickweed (common chickweed, Stellaria media), galium (catchweed bedstraw, Galium aparine), bromegrass, down (downy bromegrass, Bromus tectorum), Russian thistle (Salsola kali), field poppy (Papaver rhoeas), field violet (Viola arvensis), foxtail, green (green foxtail, Setaria viridis), deadnettle (henbit deadnettle, Lamium amplexicaule), ryegrass, Ital. (Italian ryegrass, Lolium multiflorum), kochia (Kochia scoparia), lambsquarters (Chenopodium album), oilseed rape (Brassica napus), pigweed (Amaranthus retroflexus), chamomile (scentless chamomile, Matricaria inodora), speedwell (bird's-eye speedwell, Veronica persica), barley, spring (spring barley, Hordeum vulgare), wheat, spring (spring wheat, Triticum aestivum), buckwheat, wild (wild buckwheat, Polygonum convolvulus), wild mustard (Sinapis arvensis), oat, wild (wild oat, Avena fatua), radish, wild (wild radish, Raphanus raphanistrum), […]), barley, winter (winter barley, Hordeum vulgare), and wheat, winter (winter wheat, Triticum aestivum) were planted into a silt loam soil and treated preemergence with test chemicals formulated in a non-phytotoxic solvent mixture which included a surfactant. At the same time, these species were planted in pots containing Sunshine Redi-Earth® planting medium comprising spaghnum peat moss, vermiculite, starter nutrients and dolomitic limestone and treated with postemergence applications of the test chemicals formulated in the same manner. Plants ranged in height from 2 to 18 cm (1- to 4-leaf stage). Treated plants and controls were maintained in a controlled growth environment for 14 to 21 d after which time all species were compared to controls and visually evaluated. […] A dash (-) response means no test result.

[2] = system: buckwheat, wild; test: Test D preemergence; assay type: in vivo, Polygonum convolvulus; details: for Plant response rating: Buckwheat, Wild: scale 0 to 100
From the text: as §1

[3] = system: ryegrass, Ital.; test: Test D postemergence; assay type: in vivo, Lolium multiflorum; details: scale 0 to 100
From the text: as §1

[4] = system: windgrass; test: Test D postemergence; assay type: in vivo, Apera spica-venti; details: scale 0 to 100
From the text: as §1

[5] = system: corn; test: Test C preemergence; assay type: in vivo, Zea mays; details: for Plant response rating (scale of 0 to 100 where 0 is no effect and 100 is complete control): Corn, preemergence; for Corn plant response rating (0 to 100): Preemergence, visual rating after 13 to 15 d
From the text: (§2) Seeds of plant species selected from blackgrass (Alopecurus myosuroides), ryegrass, Italian (Italian ryegrass, Lolium multiflorum), wheat (winter wheat, Triticum aestivum), galium (catchweed bedstraw, Galium aparine), corn (Zea mays), crabgrass, large (large crabgrass, Digitaria sanguinalis), foxtail, giant, (giant foxtail, Setaria faberii), johnsongrass (Sorghum halepense), lambsquarters (Chenopodium album), morningglory (Ipomoea coccinea), nutsedge, yellow (yellow nutsedge, Cyperus esculentus), pigweed (Amaranthus retroflexus), ragweed (common ragweed, Ambrosia elatior), soybean (Glycine max), barnyardgrass (Echinochloa crus-galli), oilseed rape (Brassica napus), waterhemp (common waterhemp, Amaranthus rudis), and velvetleaf (Abutilon theophrasti) were planted into a blend of loam soil and sand and treated preemergence with test chemicals formulated in a non-phytotoxic solvent mixture which included a surfactant. At the same time, plants selected from these crop and weed species and also chickweed (common chickweed, Stellaria media), oat, wild (wild oat, Avena fatua), and kochia (Kochia scoparia), were planted in pots containing Sunshine Redi-Earth® planting medium comprising spaghnum peat moss, vermiculite, starter nutrients and dolomitic limestone and treated with postemergence applications of test chemicals formulated in the same manner. Plants ranged in height from 2 to 18 cm (1- to 4-leaf stage) for postemergence treatments. […] A dash (-) response means no test result.

[6] = system: deadnettle; test: Test D preemergence; assay type: in vivo, Lamium amplexicaule; details: for Plant response rating: Deadnettle: scale 0 to 100
From the text: as §1

[7] = system: soybean; test: Test C preemergence; assay type: in vivo, Glycine max; details: for Soybean plant response rating (0 to 100): Preemergence, visual rating after 13 to 15 d
From the text: as §2

[8] = system: kochia; test: Test A preemergence; assay type: in vivo, Kochia scoparia; details: 0 to 100 scale (0 no effect, 100 complete control)
Outline: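 Visual 0–100 ratings (0 no effect, 100 complete control) made roughly 10 days after treatment, comparing greenhouse-grown plants to untreated controls. Formulated test chemicals, with surfactant, went either as directed soil spray at planting or onto 2–10 cm seedlings bearing one to two leaves.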

[9] = system: wild mustard; test: Test D postemergence; assay type: in vivo, Sinapis arvensis; details: scale 0 to 100
From the text: as §1

[10] = system: Russian thistle; test: Test D postemergence; assay type: in vivo, Salsola kali; details: scale 0 to 100
From the text: as §1

[11] = system: waterhemp; test: Test C preemergence; assay type: in vivo, Amaranthus rudis; details: for Waterhemp plant response rating (0 to 100): Preemergence, visual rating after 13 to 15 d
From the text: as §2

[12] = system: windgrass; test: Test D preemergence; assay type: in vivo, Apera spica-venti; details: for Plant response rating: Windgrass: scale 0 to 100
From the text: as §1

[13] = system: ryegrass, Italian; test: Test C preemergence; assay type: in vivo, Lolium multiflorum; details: for Ryegrass, Italian plant response rating (0 to 100): Preemergence, visual rating after 13 to 15 d; for Plant response rating (scale of 0 to 100 where 0 is no effect and 100 is complete control): Ryegrass, Italian, preemergence
From the text: as §2

[14] = 16 g ai/ha, 0 is no effect, 100 is complete control

SMILES: CCOc1nc(-c2ccccc2)nn1Cc1ccnc(C(F)(F)F)c1 [Compound 27]
- Plant response rating: Field Violet ([1]; 16 g ai/ha): 70
- Plant response rating: Field Violet ([1]; 31 g ai/ha): 75
- Plant response rating: Field Violet ([1]; 62 g ai/ha): 80
- Plant response rating: Field Violet ([1]; 125 g ai/ha): 80
- Plant response rating (0 to 100), Buckwheat, Wild [2, 14]: 65
- Plant response rating: Buckwheat, Wild ([2]; 31 g ai/ha): 80
- Plant response rating: Buckwheat, Wild ([2]; 62 g ai/ha): 70
- Plant response rating: Buckwheat, Wild ([2]; 125 g ai/ha): 85
- Plant response rating: Ryegrass, Ital. ([3]; 16 g ai/ha): 15
- Plant response rating: Ryegrass, Ital. ([3]; 31 g ai/ha): 20
- Plant response rating: Ryegrass, Ital. ([3]; 62 g ai/ha): 35
- Plant response rating: Ryegrass, Ital. ([3]; 125 g ai/ha): 60
- Plant response rating: Windgrass ([4]; 16 g ai/ha): 60
- Plant response rating: Windgrass ([4]; 31 g ai/ha): 65
- Plant response rating: Windgrass ([4]; 62 g ai/ha): 70
- Plant response rating: Windgrass ([4]; 125 g ai/ha): 70
- Plant response rating (scale of 0 to 100 where 0 is no effect and 100 is complete control) ([5]; 125 g ai/ha): 55
- Plant response rating (scale of 0 to 100 where 0 is no effect and 100 is complete control) ([5]; 250 g ai/ha): 60
- Corn plant response rating (0 to 100) ([5]; 31 g ai/ha): 25
- Corn plant response rating (0 to 100) ([5]; 62 g ai/ha): 40
- Plant response rating (0 to 100), Deadnettle [6, 14]: 80
- Plant response rating: Deadnettle ([6]; 31 g ai/ha): 100
- Plant response rating: Deadnettle ([6]; 62 g ai/ha): 100
- Plant response rating: Deadnettle ([6]; 125 g ai/ha): 100
- Soybean plant response rating (0 to 100) ([7]; 31 g ai/ha): 35
- Soybean plant response rating (0 to 100) ([7]; 62 g ai/ha): 40
- Plant response rating (scale of 0 to 100 where 0 is no effect and 100 is complete control) ([7]; Soybean, preemergence, 250 g ai/ha): 75
- Plant response rating, Kochia ([8]; 125 g ai/ha): 100
- Plant response rating, Kochia ([8]; 500 g ai/ha, approx. 10 d): 100
- Plant response rating: Mustard, Wild ([9]; 16 g ai/ha): 80
- Plant response rating: Mustard, Wild ([9]; 31 g ai/ha): 100
- Plant response rating: Mustard, Wild ([9]; 62 g ai/ha): 100
- Plant response rating: Mustard, Wild ([9]; 125 g ai/ha): 100
- Plant response rating: Russian Thistle ([10]; 16 g ai/ha): 75
- Plant response rating: Russian Thistle ([10]; 31 g ai/ha): 80
- Plant response rating: Russian Thistle ([10]; 62 g ai/ha): 85
- Plant response rating: Russian Thistle ([10]; 125 g ai/ha): 85
- Waterhemp plant response rating (0 to 100) ([11]; 31 g ai/ha): 100
- Waterhemp plant response rating (0 to 100) ([11]; 62 g ai/ha): 100
- Plant response rating (scale of 0 to 100 where 0 is no effect and 100 is complete control) ([11]; Waterhemp, preemergence, 250 g ai/ha): 100
- Plant response rating (0 to 100), Windgrass [12, 14]: 5
- Plant response rating: Windgrass ([12]; 62 g ai/ha): 80
- Plant response rating: Windgrass ([12]; 125 g ai/ha): 95
- Ryegrass, Italian plant response rating (0 to 100) ([13]; 31 g ai/ha): 25
- Ryegrass, Italian plant response rating (0 to 100) ([13]; 62 g ai/ha): 30
- Plant response rating (scale of 0 to 100 where 0 is no effect and 100 is complete control) ([13]; 125 g ai/ha): 90
- Plant response rating (scale of 0 to 100 where 0 is no effect and 100 is complete control) ([13]; 250 g ai/ha): 95
